The values below come from patent US5075440A, “Novel pyrido[2,3-f](1,4)thiazepines and pyrido[3,2-b](1,5)benzothiazepines” (Ortho Pharmaceutical Corporation, priority 1990, dated 1991).

Broadly, the IC50 is the concentration needed to halve the response being measured.

For one experiment, the system named is aorta tissue. The experiment is described as follows: Inhibition of calcium dependent smooth muscle contraction, aorta (P#176 Aorta). The arrangement: species or system dog. Particulars: Canis lupus familiaris, 50 mM KCl contraction, read-out: P#176 Aorta % INHB/μM. Here is the method: (§1) The test for inhibition of calcium dependent smooth muscle contraction is determined according to the following procedure:
(§2) The trachea and the aorta from dogs sacrificed by excess KCl injection are stored overnight at 4° C. in oxygenated Krebs-Henseleit buffer. Tracheal rings, one cartilage segment wide (5-10 mm), are cut starting from the bronchial end. Rings of aorta tissue of the same width are also prepared. After cutting the cartilage, the trachealis muscle tissue and the aorta tissue are suspended in oxygenated Krebs-Henseleit buffer at 37° C. in a 25 ml tissue bath. After a 60-minute equilibration period, the tissues are challenged with 10 μM carbachol. After 5 minutes, the tissues are rinsed and allowed to rest 50 minutes. The tissues are then challenged with 50 mM KCl and, after 30 minutes, the contractions are quantitated. The tissues are then rinsed and reequilibrated for 50 minutes. Test compounds are then added for 10 minutes, and the tissue is rechallenged with 50 mM KCl. After 30 minutes, the contraction is recorded and used to determine the % inhibition of control.
(§3) The percent inhibition of smooth muscle contraction is calculated from response data before and after drug treatment. [formula]

Experiment [1] deals with T1, Calcium Channel (3H-nitrendipine binding, heart membranes) (Oryctolagus cuniculus, UniProt P15381).
T1 construct: the heart is immediately removed, cleaned and chopped into small pieces; The tissue is homogenized; from tissue; host or cells: heart membranes of female New Zealand white rabbits (42,000×g pellet)
Put plainly: Inhibition of 3H-nitrendipine binding (P#166 Nit. Binding). Set-up: species or system rabbit. Particulars: for IC50: rabbit heart membranes, 3H-nitrendipine 0.05-0.50 nM. Here is the method: The assay for inhibition of nitrendipine binding is performed using the following procedure:
Female, New Zealand white rabbits (1-2 kg) are sacrificed by cervical dislocation, and the heart is immediately removed, cleaned and chopped into small pieces. The tissue is homogenized in 5×volume of 0.05M Hepes buffer, pH 7.4. The homogenate is centrifuged at 4000×g for 10 minutes, and the supernatant is recentrifuged at 42,000×g for 90 minutes. The resulting membrane pellet is resuspended (0.7 ml/g weight) in 0.05M Hepes, pH 7.4 and stored at […] until used. Each tube of the binding assay contains ^3 H-nitrendipine (0.05-0.50 nM), buffer, membranes (0.10 ml), and test compound in a total volume of 1.0 ml. After 90 minutes at 4° C., the bound nitrendipine is separated from the unbound by filtration on Whatman GF/C filters. After rinsing, the filters are dried and counted in a liquid scintillation counter.
Non-specific binding of ^3 H-nitrendipine (that amount bound in the presence of excess unlabelled nitrendipine) is subtracted from the total bound to obtain specifically bound radiolabeled nitrendipine. The amount of specifically bound nitrendipine in the presence of a test compound is compared to that amount bound in the absence of a compound. A percent displacement (or inhibition) can then be obtained.

For another experiment, the system named is trachealis muscle tissue. The experiment is described as follows: Inhibition of calcium dependent smooth muscle contraction, trachea (P#176 Trach). The arrangement: species or system dog. The conditions noted are these: Canis lupus familiaris, 50 mM KCl contraction, read-out: P#176 Trach % INHB/μM. Here is the method:
as §1, §2, §3

Where “and” joins values, the source holds several entries; their conditions need not be identical. Equal entries are not always repeated.

T1 sequence (P15381 whole entry, other chains not shown): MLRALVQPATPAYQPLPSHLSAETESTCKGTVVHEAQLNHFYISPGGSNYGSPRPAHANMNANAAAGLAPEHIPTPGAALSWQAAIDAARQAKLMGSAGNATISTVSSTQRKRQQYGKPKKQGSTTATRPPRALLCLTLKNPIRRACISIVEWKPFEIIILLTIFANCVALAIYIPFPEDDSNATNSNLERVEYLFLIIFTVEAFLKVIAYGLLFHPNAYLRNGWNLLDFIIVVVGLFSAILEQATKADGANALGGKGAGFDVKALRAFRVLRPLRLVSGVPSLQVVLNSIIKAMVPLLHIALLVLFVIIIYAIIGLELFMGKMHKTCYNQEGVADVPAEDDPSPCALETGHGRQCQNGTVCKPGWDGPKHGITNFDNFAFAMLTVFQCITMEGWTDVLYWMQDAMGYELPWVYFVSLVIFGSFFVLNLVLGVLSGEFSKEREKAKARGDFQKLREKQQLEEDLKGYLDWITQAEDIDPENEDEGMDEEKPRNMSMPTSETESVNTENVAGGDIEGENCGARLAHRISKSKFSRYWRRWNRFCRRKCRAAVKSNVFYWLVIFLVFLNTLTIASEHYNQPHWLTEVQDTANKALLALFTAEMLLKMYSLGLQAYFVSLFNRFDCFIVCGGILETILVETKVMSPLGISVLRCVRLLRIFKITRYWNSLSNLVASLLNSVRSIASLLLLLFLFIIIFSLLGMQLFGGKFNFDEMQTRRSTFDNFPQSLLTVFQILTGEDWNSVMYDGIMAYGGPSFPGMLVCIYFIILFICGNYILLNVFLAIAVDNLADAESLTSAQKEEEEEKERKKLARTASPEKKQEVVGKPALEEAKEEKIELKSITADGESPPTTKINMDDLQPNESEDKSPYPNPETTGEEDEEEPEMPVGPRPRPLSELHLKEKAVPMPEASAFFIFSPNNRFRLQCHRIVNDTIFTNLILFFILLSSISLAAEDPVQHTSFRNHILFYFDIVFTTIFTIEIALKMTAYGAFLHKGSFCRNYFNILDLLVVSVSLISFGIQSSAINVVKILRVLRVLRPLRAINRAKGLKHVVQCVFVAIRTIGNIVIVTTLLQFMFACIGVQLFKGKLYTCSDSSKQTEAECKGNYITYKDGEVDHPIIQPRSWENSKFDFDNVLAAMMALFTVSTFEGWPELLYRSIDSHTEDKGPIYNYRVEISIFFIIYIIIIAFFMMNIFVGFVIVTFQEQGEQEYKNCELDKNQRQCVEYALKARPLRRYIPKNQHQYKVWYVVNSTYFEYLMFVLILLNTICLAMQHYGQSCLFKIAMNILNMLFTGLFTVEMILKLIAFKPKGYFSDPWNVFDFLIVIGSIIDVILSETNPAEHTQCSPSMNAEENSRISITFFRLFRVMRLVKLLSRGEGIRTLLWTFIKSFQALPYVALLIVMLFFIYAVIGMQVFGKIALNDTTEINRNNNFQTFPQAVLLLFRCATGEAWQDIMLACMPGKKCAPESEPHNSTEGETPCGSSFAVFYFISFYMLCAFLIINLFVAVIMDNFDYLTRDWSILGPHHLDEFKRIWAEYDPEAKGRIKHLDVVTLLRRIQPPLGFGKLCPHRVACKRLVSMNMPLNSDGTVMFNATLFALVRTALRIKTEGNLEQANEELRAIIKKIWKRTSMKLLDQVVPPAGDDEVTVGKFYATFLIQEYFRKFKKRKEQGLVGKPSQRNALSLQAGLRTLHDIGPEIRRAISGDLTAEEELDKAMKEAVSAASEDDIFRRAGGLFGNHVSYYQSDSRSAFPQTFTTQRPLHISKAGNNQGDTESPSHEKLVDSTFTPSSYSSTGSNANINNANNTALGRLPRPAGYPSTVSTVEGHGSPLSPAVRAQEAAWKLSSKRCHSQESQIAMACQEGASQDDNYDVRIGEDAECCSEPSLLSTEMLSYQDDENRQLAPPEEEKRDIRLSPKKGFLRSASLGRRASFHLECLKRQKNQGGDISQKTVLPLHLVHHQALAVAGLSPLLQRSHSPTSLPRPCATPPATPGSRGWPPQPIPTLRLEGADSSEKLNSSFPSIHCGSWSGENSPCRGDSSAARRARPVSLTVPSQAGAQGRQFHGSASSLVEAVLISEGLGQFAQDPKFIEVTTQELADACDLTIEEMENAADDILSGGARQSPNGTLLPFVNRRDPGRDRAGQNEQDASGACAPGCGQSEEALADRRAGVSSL
T1 sequence (P13806 27-960 partner limits assumed, other chains not shown): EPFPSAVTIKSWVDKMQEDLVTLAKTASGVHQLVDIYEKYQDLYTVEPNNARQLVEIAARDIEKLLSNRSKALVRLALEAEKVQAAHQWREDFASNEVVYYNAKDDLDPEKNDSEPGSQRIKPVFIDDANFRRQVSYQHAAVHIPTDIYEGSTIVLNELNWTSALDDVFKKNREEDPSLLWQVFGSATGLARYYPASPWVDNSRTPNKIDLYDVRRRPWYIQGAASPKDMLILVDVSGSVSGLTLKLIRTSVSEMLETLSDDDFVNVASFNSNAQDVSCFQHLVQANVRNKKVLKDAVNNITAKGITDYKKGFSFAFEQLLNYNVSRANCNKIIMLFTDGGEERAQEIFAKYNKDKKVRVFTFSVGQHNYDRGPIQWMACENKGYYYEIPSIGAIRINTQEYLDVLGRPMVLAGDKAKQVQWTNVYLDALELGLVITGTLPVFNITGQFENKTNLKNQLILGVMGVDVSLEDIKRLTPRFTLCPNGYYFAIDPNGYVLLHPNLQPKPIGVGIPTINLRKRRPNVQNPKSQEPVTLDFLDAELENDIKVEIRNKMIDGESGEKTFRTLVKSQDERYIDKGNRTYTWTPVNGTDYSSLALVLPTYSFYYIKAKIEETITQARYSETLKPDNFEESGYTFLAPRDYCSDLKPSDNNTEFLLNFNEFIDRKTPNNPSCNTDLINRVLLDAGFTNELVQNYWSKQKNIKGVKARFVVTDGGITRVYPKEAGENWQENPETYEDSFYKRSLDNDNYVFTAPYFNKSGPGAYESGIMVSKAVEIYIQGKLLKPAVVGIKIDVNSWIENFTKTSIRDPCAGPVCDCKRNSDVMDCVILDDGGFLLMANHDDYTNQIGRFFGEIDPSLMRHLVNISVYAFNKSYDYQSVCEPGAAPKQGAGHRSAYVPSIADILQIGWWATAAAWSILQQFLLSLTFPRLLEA
T1 sequence (P13806 961-1106 partner limits assumed, other chains not shown): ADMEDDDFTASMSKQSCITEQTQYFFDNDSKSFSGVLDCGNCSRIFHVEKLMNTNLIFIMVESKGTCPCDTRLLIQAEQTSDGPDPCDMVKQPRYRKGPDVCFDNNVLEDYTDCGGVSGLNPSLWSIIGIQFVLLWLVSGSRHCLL

For `CC1=C(C(=O)OCCN(C)Cc2ccccc2)C(c2cccc(Cl)c2Cl)C2=C(CNCCS2(=O)=O)N1` (stereo not shown) [2,3-dichloro / H / NBzNMe-ethyl, 2-(N-benzyl-N-methylamino)ethyl 9-(2,3-dichlorophenyl)-1,1-dioxo-2,3,4,5,6,9-hexahydro-7-methylpyrido[2,3-f][1,4]thiazepine-8-carboxylate], in the experiment on aorta tissue (0.03 μM), the inhibition at 0.03 µM stood at 20%. For the same compound, in the experiment with aorta tissue, the inhibition at 0.1 µM was 48% and the inhibition at 1 µM turned out to be 93%. Further, the IC50 in experiment [1] amounted to 380 nM. Also, in the experiment on trachealis muscle tissue, the inhibition at 0.1 µM was 23%, the inhibition at 0.3 µM came out at 62% and the inhibition at 2 µM was 86%.

With `CCOC(=O)C1=C(C)NC2=C(C1c1cccc(Cl)c1Cl)S(=O)(=O)CCNC2` (stereo not shown) [2,3-dichloro / H / ethyl, Ethyl 9-(2,3-dichlorophenyl)-1,1-dioxo-2,3,4,5,6,9-hexahydro-7-methyl-pyrido[2,3-f][1,4]thiazepine-8-carboxylate], the inhibition at 0.01 µM in the experiment on aorta tissue came out at 21%. The inhibition at 0.1 µM in the experiment with aorta tissue amounted to 85%; in the experiment on trachealis muscle tissue, 43%. For the same compound, the inhibition at 1 µM with aorta tissue was found to be 96%; in the experiment on trachealis muscle tissue (1.0 μM) it was 73%. The IC50 in experiment [1] is 99 nM and 105 nM.

For `CCOC(=O)C1=C(C)NC2=C(C1c1cccc(Cl)c1Cl)S(=O)(=O)CCN(C)C2` (stereo not shown) [2,3-dichloro / Me / ethyl, Ethyl 9-(2,3-dichlorophenyl)-4,7-dimethy-1,1-dioxo-2,3,4,5,6,9-hexahydropyrido[2,3-f][1,4]thiazepine-8-carboxylate], in the experiment on aorta tissue, the inhibition at 0.01 µM is 67%, the inhibition at 0.1 µM came out at 96% and the inhibition at 1 µM stood at 97%. Moreover, in experiment [1], the IC50 is 120 nM. Moreover, in the experiment on trachealis muscle tissue (0.01 μM), the inhibition at 0.01 µM amounted to 55%. For the same compound, in the experiment with trachealis muscle tissue, the inhibition at 0.1 µM worked out at 80% and the inhibition at 2 µM was 98%.

Consider `CCCN1CCS(=O)(=O)C2=C(C1)NC(C)=C(C(=O)OCC)C2c1cccc(Cl)c1Cl` (stereo not shown) [2,3-dichloro / Pr / ethyl], for which, in the experiment with aorta tissue, the inhibition at 0.01 µM worked out at 53%, the inhibition at 0.1 µM is 88% and the inhibition at 1 µM was determined as 100%. In experiment [1], the IC50 came to 145 nM. In the experiment on trachealis muscle tissue (0.03 μM), the inhibition at 0.03 µM stood at 30%. Besides, in the experiment with trachealis muscle tissue, the inhibition at 0.1 µM was determined as 44%, the inhibition at 0.3 µM was 53% and the inhibition at 2 µM turned out to be 68%.

As to `CCOC(=O)C1=C(C)NC2=C(C1c1cccc(Cl)c1Cl)S(=O)(=O)CCN(C(C)C)C2` (stereo not shown) [2,3-dichloro / iPr / ethyl], in the experiment on aorta tissue, the inhibition at 0.01 µM worked out at 38%, the inhibition at 0.1 µM came to 83% and the inhibition at 1 µM is 95%. In addition, in experiment [1], the IC50 was 72 nM. Moreover, in the experiment with trachealis muscle tissue, the inhibition at 0.1 µM was determined as 37%, the inhibition at 0.3 µM is 61% and the inhibition at 2 µM was 86%.

Take `CCOC(=O)C1=C(C)NC2=C(C1c1ccccc1C(F)(F)F)S(=O)(=O)CCN(C(=O)OC(C)(C)C)C2` (stereo not shown) [2-CF3 / BOC / ethyl]: in the experiment with aorta tissue, the inhibition at 0.1 µM stood at 37% and the inhibition at 1 µM worked out at 47%. In addition, the inhibition at 1 µM in experiment [1] (@ 1.0 μM test compound) was found to be 7%. In the experiment with trachealis muscle tissue, the inhibition at 0.3 µM came out at 24% and the inhibition at 2 µM was found to be 50%.

As to `CCOC(=O)C1=C(C)NC2=C(C1c1ccccc1C(F)(F)F)S(=O)(=O)CCNC2` (stereo not shown) [2-CF3 / H / ethyl], in the experiment with aorta tissue, the inhibition at 0.01 µM is 37%, the inhibition at 0.1 µM turned out to be 68% and the inhibition at 1 µM was determined as 83%. Besides, the IC50 in experiment [1] turned out to be 360 nM. For the same compound, in the experiment on trachealis muscle tissue, the inhibition at 0.1 µM was determined as 38%, the inhibition at 0.3 µM worked out at 35% and the inhibition at 2 µM came to 73%.

Turning to `CCOC(=O)C1=C(C)NC2=C(C1c1c(F)cccc1Cl)S(=O)(=O)CCNC2` (stereo not shown) [2-Cl, 6-F / H / ethyl], in the experiment on aorta tissue, the inhibition at 0.01 µM came out at 4.8% and the inhibition at 1 µM is 86%. In addition, in experiment [1], the IC50 was found to be 870 nM. Besides, in the experiment with trachealis muscle tissue, the inhibition at 0.3 µM stood at 56% and the inhibition at 2 µM was determined as 88%.
